Source: patent US9175003B2, “Substituted azoanthracene derivatives and intermediates for preparation thereof” (TransTech Pharma, LLC, priority 2009, dated 2015)

Molecular target: human GLP-1 receptor (Homo sapiens (Human), UniProt P43220)
Conditions: read-out: Mean EC50; cAMP, HTRF detection, 30 min at 37° C., HEK-293 cells expressing cloned human GLP-1 receptor

Chain of human GLP-1 receptor (P43220 24-463): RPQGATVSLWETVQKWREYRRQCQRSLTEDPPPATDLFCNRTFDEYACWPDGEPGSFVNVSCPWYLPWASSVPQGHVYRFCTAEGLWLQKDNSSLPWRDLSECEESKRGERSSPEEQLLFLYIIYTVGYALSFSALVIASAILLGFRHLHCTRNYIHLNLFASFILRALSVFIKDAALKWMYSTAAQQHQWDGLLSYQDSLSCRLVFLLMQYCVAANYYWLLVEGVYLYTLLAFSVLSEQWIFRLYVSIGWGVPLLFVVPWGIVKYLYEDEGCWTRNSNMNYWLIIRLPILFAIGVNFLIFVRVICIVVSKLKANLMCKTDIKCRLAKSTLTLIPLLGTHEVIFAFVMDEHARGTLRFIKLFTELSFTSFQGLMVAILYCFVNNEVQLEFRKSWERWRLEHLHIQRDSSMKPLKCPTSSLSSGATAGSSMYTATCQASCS

SMILES	EC50
Cc1nc(NCCC(C)C)sc1S(=O)(=O)N1Cc2cc3c(cc2C[C@H]1C(=O)N[C@@H](Cc1ccc(-c2ccc(C#N)cc2)cc1)C(=O)O)OCC(c1ccc(OCc2ccc(Cl)c(Cl)c2)cc1)O3 (stereo in doubt) [Example 110, (S)-3-(4′-Cyano-biphenyl-4-yl)-2-({(S)-3-[4-(3,4-dichloro-benzyloxy)-phenyl]-7-[4-methyl-2-(3-methyl-butylamino)-thiazole-5-sulfonyl]-2,3,6,7,8,9-hexahydro-[1,4]dioxino[2,3-g]isoquinoline-8-carbonyl}-amino)-propionic acid]	0.356 µM
Cc1nccc(-c2ccc(C[C@H](NC(=O)[C@@H]3Cc4cc5c(cc4CN3Cc3nccn3C)O[C@@H](c3ccc(OCc4ccc(Cl)c(Cl)c4)cc3)CO5)C(=O)O)cc2)c1C [Example 230, (S)-2-{[(3S,8S)-3-[4-(3,4-Dichloro-benzyloxy)-phenyl]-7-(1-methyl-1H-imidazol-2-ylmethyl)-2,3,6,7,8,9-hexahydro-[1,4]dioxino[2,3-g]isoquinoline-8-carbonyl]-amino}-3-[4-(2,3-dimethyl-pyridin-4-yl)phenyl]-propionic acid]	0.018 µM
Cc1nc(C(=O)N2Cc3cc4c(cc3C[C@H]2C(=O)N[C@@H](Cc2ccc(-c3ccnc(C)c3C)cc2)C(=O)O)OC[C@H](c2ccc(OCCc3ccccc3)cc2)O4)c(C)o1 [Example 377, (S)-2-{[(3S,8S)-7-(2,5-Dimethyl-oxazole-4-carbonyl)-3-(4-phenethyloxy-phenyl)-2,3,6,7,8,9-hexahydro-[1,4]dioxino[2,3-g]isoquinoline-8-carbonyl]-amino}-3-[4-(2,3-dimethyl-pyridin-4-yl)-phenyl]-propionic acid]	0.049 µM
CC[C@@H](c1ccccc1)N1Cc2cc3c(cc2C[C@H]1C(=O)N[C@@H](Cc1ccc(-c2ccnc(C)c2C)cc1)C(=O)O)OC[C@H](c1ccc(OCc2cccc(Cl)c2)cc1)O3 [Example 147, (S)-2-{[(3S,8S)-3-[4-(3-Chloro-benzyloxy)-phenyl]-7-((S)-1-phenyl-propyl)-2,3,6,7,8,9-hexahydro-[1,4]dioxino[2,3-g]isoquinoline-8-carbonyl]-amino}-3-[4-(2,3-dimethyl-pyridin-4-yl)-phenyl]-propionic acid]	0.005 µM
Cc1nccc(-c2ccc(C[C@H](NC(=O)[C@@H]3Cc4cc5c(cc4CN3C(=O)Nc3cnccn3)O[C@@H](c3ccc(OCc4ccc(Cl)c(Cl)c4)cc3)CO5)C(=O)O)cc2)c1C [Example 257, (S)-2-{[(3S,8S)-3-[4-(3,4-Dichloro-benzyloxy)-phenyl]-7-(pyrazin-2-ylcarbamoyl)-2,3,6,7,8,9-hexahydro-[1,4]dioxino[2,3-g]isoquinoline-8-carbonyl]-amino}-3-[4-(2,3-dimethyl-pyridin-4-yl)-phenyl]-propionic acid]	0.348 µM
Cc1nccc(-c2ccc(C[C@H](NC(=O)[C@@H]3Cc4cc5c(cc4CN3C(=O)N[C@H](C)c3ccccc3)O[C@@H](c3ccc(OCCc4ccc(Cl)cc4)cc3)CO5)C(=O)O)cc2)c1C [Example 388, (S)-2-{[(3S,8S)-3-{4-[2-(4-Chloro-phenyl)-ethoxy]-phenyl}-7-((R)-1-phenyl-ethylcarbamoyl)-2,3,6,7,8,9-hexahydro-[1,4]dioxino[2,3-g]isoquinoline-8-carbonyl]-amino}-3-[4-(2,3-dimethyl-pyridin-4-yl)-phenyl]-propionic acid]	0.179 µM
Cc1nccc(-c2ccc(C[C@H](NC(=O)[C@@H]3Cc4cc5c(cc4CN3C(=O)c3ccccc3)O[C@@H](c3ccc(OCCC(C)(C)C)cc3)CO5)C(=O)O)cc2)c1C [Example 303, (S)-2-({(3S,8S)-7-Benzoyl-3-[4-(3,3-dimethyl-butoxy)-phenyl]-2,3,6,7,8,9-hexahydro-[1,4]dioxino[2,3-g]isoquinoline-8-carbonyl}-amino)-3-[4-(2,3-dimethyl-pyridin-4-yl)-phenyl]-propionic acid]	0.141 µM
